# Columns and labels:
# [1] = test system: hSOD1-G93A mice; experiment: In vivo attenuation of ALS symptoms in transgenic G93A-SOD1 mice; conditions: 40 mg/kg or about 1 mg/mouse/day in drinking water
# Excerpt: Animal model: A transgenic mouse line overexpressing mutant G93A-SOD1 gene (TgN(SOD1-G93A)1Gur, herein called hSOD1-G93A, a high expression mouse line) and the mating pairs were purchased from Jackson Laboratory (Bar Harbor, Me.). Mice were housed and bred as described previously (Liu R, et al., “Enhanced oxygen radical production in a transgenic mouse model of familial amyotrophic lateral sclerosis,” Ann. Neurol. 44:763-70 (1998)) and in accordance with the University of North Dakota Animal Care and Use Committee guidelines.
# At age 40-50 days, transgenic littermates (wild-type normal mice and hSOD1-G93A mice) were divided into three groups (n=10) and administered with vehicle alone (regular drinking water), Mito-Tempol (40 mg/kg or about 1 mg/mouse/day) or Tempol (40 mg/kg or about 1 mg/mouse/day), respectively. The onset of disease was defined as the day when a sharp decrease in muscle strength was detected. The initial symptoms of hind leg paralysis was considered as the disease progression as well.
# [2] = test system: Bovine aortic endothelial cells (BAECs); experiment: Glu/GO-induced caspase-3 activity (apoptosis) in BAECs; format: cell-based
# Experimental: Cell line: Bovine aortic endothelial cells (BAECs; American Type Culture Collection) were grown to confluence in DMEM (Calbiochem; San Diego, Calif.) containing 10% fetal bovine serum (FBS; Invitrogen; Carlsbad, Calif.) insulin (10 μg/ml; Invitrogen), transferrin (5 μg/ml; Invitrogen), glutamine (4 mM; Sigma-Aldrich), penicillin (100 units/ml; Sigma-Aldrich) and streptomycin (100 μg/ml; Sigma-Aldrich) and were incubated at 37° C. in a humidified atmosphere of 5% CO2 and 95% air. The BAECs were used between passages four and twelve, as described by Balla G, et al., “Ferritin: a cytoprotective antioxidant strategem of endothelium,” J. Biol. Chem. 267:18148-18153 (1992). On the day of treatment, the medium was replaced with DMEM containing 2% FBS.
# Glucose/Glucose Oxidase (Glu/GO): GO was obtained from Sigma Aldrich (Milwaukee, Wis.); 13-hydroperoxyoctadecadienoic acid (13-HpODE, a lipoxygenase-catalyzed oxidative metabolite of linolieic acid) and β-hydroxyoctadecadienoic acid (13-HODE, […]) were obtained from Cayman Chemical Co. (Ann Arbor, Mich.); 2′,7′-dichlorodihydrofluorescein diacetate (DCFH-DA) was obtained from Molecular Probes (Eugene, Oreg.); N-carbobenzoxyl-L-leucinyl-L-norleucinal (MG-132) was obtained from Biomol (Plymouth Meeting, Pa.); and clastolactacystin-α-lactone (Lac) was obtained from Sigma Aldrich.
# BAECs were incubated with Glu/GO (20 μM), 13-HpODE (25 μM) or 13-HODE (25 μM) for different time periods (0, 2, 4, 8 or 16 hours).
# Caspase-3 Activity: After treatment with Glu-GO and antioxidants, cells were washed twice with Dulbecco's phosphate-buffered saline (DPBS) and lysed with cell lysis buffer. Caspase-3 activity was measured with acetyl Asp-Glu-Val-Asp 7-amido-4-methylcoumarin (Ac-DEVD-AFC), as described in a kit from Sigma Aldrich. Caspase-3 hydrolyzes Ac-DEVD-AFC to release a fluorescent moiety, 7-amino-4-methylcoumarin (AMC). Briefly, treated cells were suspended in 100 μl of lysis buffer and passed through a 24-guage needle 10 times to ensure complete lysis. The resulting lysate was centrifuged at 4° C. at 10,000 rmp. […]
smiles,measurement,setting,value
CC1(C)CC(OCCCCC[P+](c2ccccc2)(c2ccccc2)c2ccccc2)CC(C)(C)N1[O].[Br-] [Mito-Tempol],disease progression,[1]; FIG. 2,delayed disease progression
same,lifespan,[1]; FIG. 3,increased the lifespan
same,running activity as measured by Rotarod (motor function),[1]; FIG. 4,promoted the running activity
same,Glu/GO-mediated caspase-3 activation,"[2]; BAECs pretreated at 0.5 and 1 μM, Glu/GO eight hours, FIG. 5",greatly inhibited
same,potency in inhibiting peroxide-induced apoptosis relative to Tempol,"[2]; BAECs, Glu/GO, FIG. 5",more potent than Tempol
same,endothelial oxidative damage and apoptosis,[2]; Mito-Tempol prepared by the modified method,inhibited endothelial oxidative damage and apoptosis
